The values below are quoted from earlier work in patent US5514648A, “Fungicidally active compounds” (priority 1990, dated 1996).

Each structure is given as a SMILES string.

Series [1] has as its system Bacillus subtilis. As to conditions: against Bacillus subtilis; cited from earlier work.
The subject of series [2] is Escedchia coli. As to conditions: against Escedchia coli; cited from earlier work.
The subject of series [3] is Penicillium digitalum. As to conditions: spore germination test with Penicillium digitalum; cited from earlier work.
For series [4], the system named is Staphylococcus aureus. As to conditions: against Staphylococcus aureus; cited from earlier work.

Take `CC1CCCCCC(=O)c2c(O)cc(O)cc2CC(=O)O1` (stereo not shown) [curvularin, Curvularin]: the anti-bacterial activity entry in series [1], in series [2] and in series [4] was “Neither curvularin nor the crude filtrates from Curvularia showed” each time. Also, the anti-fungal activity result in series [3] was “Neither curvularin nor the crude filtrates from Curvularia showed”.
